The values that follow come from ChEMBL document CHEMBL1137403, “Discovery of 2-[4-{{2-(2S,5R)-2-cyano-5-ethynyl-1-pyrrolidinyl]-2-oxoethyl]amino]- 4-methyl-1-piperidinyl]-4-pyridinecarboxylic acid (ABT-279): a very potent, selective, effective, and well-tolerated inhibitor of dipeptidyl peptidase-IV, useful for the treatment of diabetes” (J Med Chem, 2006).

One assay deals with Dipeptidyl peptidase 8 (Homo sapiens, UniProt Q6V1X1).
A further assay concerns the target Dipeptidyl peptidase 9 (Homo sapiens, UniProt Q86TI2).

Where only a bound is given, the exact number is not on record here.

Dipeptidyl peptidase 8, sequence (Q6V1X1 whole entry): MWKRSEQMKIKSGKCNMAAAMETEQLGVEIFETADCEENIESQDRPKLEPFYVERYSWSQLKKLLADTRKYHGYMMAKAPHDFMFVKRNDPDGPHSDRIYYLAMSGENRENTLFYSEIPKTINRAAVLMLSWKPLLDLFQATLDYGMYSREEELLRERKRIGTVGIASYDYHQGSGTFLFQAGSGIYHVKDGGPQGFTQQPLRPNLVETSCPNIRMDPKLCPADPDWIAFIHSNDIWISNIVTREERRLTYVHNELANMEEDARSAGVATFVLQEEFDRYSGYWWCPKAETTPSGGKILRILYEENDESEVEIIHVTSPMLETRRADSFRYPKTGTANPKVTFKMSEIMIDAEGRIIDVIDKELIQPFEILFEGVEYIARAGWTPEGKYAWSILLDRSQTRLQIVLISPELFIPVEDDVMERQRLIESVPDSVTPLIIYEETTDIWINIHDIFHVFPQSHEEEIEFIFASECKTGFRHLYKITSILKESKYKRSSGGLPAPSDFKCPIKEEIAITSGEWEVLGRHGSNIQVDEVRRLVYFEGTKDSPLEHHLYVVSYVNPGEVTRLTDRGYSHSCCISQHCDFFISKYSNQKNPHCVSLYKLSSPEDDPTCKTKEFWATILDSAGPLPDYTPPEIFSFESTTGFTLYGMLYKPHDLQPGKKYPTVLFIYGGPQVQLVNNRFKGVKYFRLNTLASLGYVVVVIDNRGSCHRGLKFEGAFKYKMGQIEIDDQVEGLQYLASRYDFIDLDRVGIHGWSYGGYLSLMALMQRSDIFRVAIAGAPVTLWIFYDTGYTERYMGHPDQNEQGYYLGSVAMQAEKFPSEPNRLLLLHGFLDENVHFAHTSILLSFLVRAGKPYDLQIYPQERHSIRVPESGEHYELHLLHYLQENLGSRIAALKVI
Dipeptidyl peptidase 9, sequence (Q86TI2 whole entry): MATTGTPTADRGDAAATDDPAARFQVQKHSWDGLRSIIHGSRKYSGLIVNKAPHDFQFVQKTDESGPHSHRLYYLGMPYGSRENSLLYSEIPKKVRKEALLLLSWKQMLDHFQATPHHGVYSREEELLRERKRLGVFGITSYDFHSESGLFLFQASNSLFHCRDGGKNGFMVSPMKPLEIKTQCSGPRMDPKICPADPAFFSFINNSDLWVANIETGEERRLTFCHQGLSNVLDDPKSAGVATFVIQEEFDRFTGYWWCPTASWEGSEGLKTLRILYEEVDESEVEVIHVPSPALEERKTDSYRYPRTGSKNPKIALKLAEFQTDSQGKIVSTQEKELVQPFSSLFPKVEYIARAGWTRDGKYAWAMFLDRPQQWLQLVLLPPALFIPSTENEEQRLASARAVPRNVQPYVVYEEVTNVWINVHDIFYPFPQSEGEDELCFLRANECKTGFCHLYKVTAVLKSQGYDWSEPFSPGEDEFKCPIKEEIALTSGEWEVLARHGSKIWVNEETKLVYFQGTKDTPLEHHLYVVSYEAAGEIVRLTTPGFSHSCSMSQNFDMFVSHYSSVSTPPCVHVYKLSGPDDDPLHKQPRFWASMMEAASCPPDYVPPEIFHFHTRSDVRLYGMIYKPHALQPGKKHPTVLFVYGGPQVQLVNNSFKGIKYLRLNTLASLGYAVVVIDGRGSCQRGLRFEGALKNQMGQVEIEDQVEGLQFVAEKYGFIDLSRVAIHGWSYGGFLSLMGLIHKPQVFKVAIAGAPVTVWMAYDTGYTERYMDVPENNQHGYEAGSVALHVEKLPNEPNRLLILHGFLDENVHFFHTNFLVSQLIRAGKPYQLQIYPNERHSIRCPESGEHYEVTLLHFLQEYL

Broadly, the Ki is the dissociation constant of the complex between target and ligand, obtained from inhibition or displacement. On Dipeptidyl peptidase 8, `C#C[C@H]1CC[C@@H](C#N)N1C(=O)CN[C@H]1CC[C@H](Oc2ccc(C#N)cn2)CC1` (mixture of isomers) showed a Ki above 30 µM. `C#C[C@H]1CC[C@@H](C#N)N1C(=O)CNC1CCCC1`: the Ki at Dipeptidyl peptidase 9 and at Dipeptidyl peptidase 8 was above 30 µM throughout.
